# In a melting point compilation (Tetko et al.; mined from patent text by program, amines drawn as free bases though some values may be those of a salt):
row,melting point,Compound
1,188 to 189 °C,Cc1cnc(CNC(=O)c2sc(-n3cnn(Cc4ccc(F)cc4)c3=O)nc2C)cn1
2,115 to 117 °C,CCS(=O)(=O)c1cc(C(=O)Cl)c(OC)cc1Cl
3,86 to 89 °C,NCCOc1cc(Cl)cc(Cl)c1
4,63 to 65 °C,CCN(CC)S(=O)(=O)c1cc(C(=O)CCl)ccc1Cl
5,75 to 76 °C,CC(=O)N(Cc1ccc2c(c1)OCO2)c1ccc(Oc2ccccc2)cc1
6,287 to 289 °C,CCOC(=O)c1cnc2c(F)cc(I)cc2c1O
7,97 to 98 °C,CC1(C)Oc2ccc(CNc3ccc(Cl)cc3)cc2OC1=O
8,118 °C,CCOC(=O)c1c(S(N)=O)c2cc(C)ccc2n1C (configuration not stated)
9,186 to 187 °C,Cc1cc([C@@H](O)[C@@H](C)N2CCC(O)(c3ccc(F)cc3)CC2)cc(C)c1O[Si](C(C)C)(C(C)C)C(C)C (relative stereo)
10,65 to 66 °C,Cc1cc(S(F)(F)(F)(F)F)ccc1N
11,162 to 163 °C,CCOC(=O)c1c(CCl)nc2sc(C)c(C)c2c1-c1ccc(OC)c(OC)c1
12,148 to 149 °C,COc1ccc(CCNC(=O)Nc2ccccc2CCc2cc(C(C)(C)C)c(O)c(C(C)(C)C)c2)cc1
13,114 to 115 °C,Cc1cc(CSCCNC(=C[N+](=O)[O-])NCC(O)c2ccccc2)sc1CN(C)C (configuration not stated)
14,137 to 138 °C,CCN(CC)CCOc1ccc(CNc2ncc3c(n2)N(C)C(=O)N(c2c(Cl)cccc2Cl)C3)cc1
15,235 to 237 °C,CC1CN(c2c(F)c(F)c3c(=O)c(C(=O)O)cn(C4CC4)c3c2F)CCN1 (configuration not stated)
16,41 to 42 °C,CCCCNC(=O)C(O[Si](C)(C)C(C)(C)C)C(C)(C)C (configuration not stated)
17,77 to 78 °C,COC(=O)c1ccc2cccc(OS(=O)(=O)C(F)(F)F)c2n1
18,213 to 214 °C,COc1cc(CCNCc2ccccc2)c(CC(=O)O)cc1OC
19,260 to 261 °C,O=C(c1ccccc1)c1ccc2c(c1)C1(c3ccccc3-2)c2ccccc2-c2ccc(C(=O)c3ccccc3)cc21
20,173 to 175 °C,Cc1nc(N2CCCC(Cc3ccc(F)cc3)C2=O)sc1C(=O)NCc1cccc(F)c1 (configuration not stated)
21,231 to 233 °C,O=C(O)C1Cc2c([nH]c3ccccc23)C(CO)N1 (configuration not stated)
22,81 to 86 °C,CCCCCCCCCCCCCCCCCCNCC(O)COc1ccc(Nc2ccccc2)cc1 (configuration not stated)
23,360 °C,O=C(O)c1cc(C(=O)O)cc(P(=O)(O)O)c1
24,120 °C,CC1=C(C(=O)OCC[Si](C)(C)C)C(c2cccc([N+](=O)[O-])c2)C(C(=O)OCC[Si](C)(C)C)=C(C)N1
25,167 to 168 °C,Cc1ccc(-c2nnc(N3CCC(O)CC3)nc2-c2ccc(C)cc2)cc1

row,melting point,Compound
1,91 °C,Cc1c(Br)sc2cc(CO)ccc12
2,140 to 142 °C,CCCCN1NC(=O)CC2CCc3cc(N)ccc3C21 (configuration not stated)
3,194 to 195 °C,COc1ccc2c(n1)NC(C)(C)C(=O)N2
4,123 to 127 °C,CCCSc1ncc(CC(Cc2ccccc2)C(=O)O)n1Cc1ccccc1Cl (configuration not stated)
5,219 to 220 °C,O=c1[nH]c(=O)n([C@@H]2CO[C@H](CO)[C@@H](O)C2)cc1I
6,103 to 105 °C,CC(=CC(=O)c1ccc(Cl)cc1)N(C)C
7,74 to 76 °C,CC(C)NCC(O)COc1nccnc1C1CNCCO1 (configuration not stated)
8,65 to 66 °C,O=[N+]([O-])c1ccc(-c2cc(-c3ccc(Cl)cc3)[nH]c2C(F)(F)F)s1
9,190 to 195 °C,CC(C)(C)NC(=O)CN1C(=O)C(N)CC(c2ccccc2F)c2ccccc21 (configuration not stated)
10,72 to 74 °C,CCC(CC)Nc1cc(C)nc(Oc2c(C)cc(Cl)cc2C)c1N
11,168 to 170 °C,COC(=O)C1=Cc2cc(-c3ccc(C(F)(F)F)cc3)ccc2S(=O)(=O)CC1
12,133 to 136 °C,CC(C)(C(N)=O)c1nnc2ccc(OCCCN3CCC(OC(c4ccccc4)c4ccccc4)CC3)nn12
13,195 to 197 °C,COc1ccc(C(=O)Nc2ccccc2)cc1NCc1cccs1
14,118 to 121 °C,O=C(O)c1ccc(CCCC2SCC(=O)N2CCCC2(O)CCCCC2)cc1 (configuration not stated)
15,261 to 263 °C,Cn1c(CC(=O)O)c(C(=O)O)c(Br)c1C(=O)c1ccc(Cl)cc1
16,340 to 342 °C,O=C1c2ccccc2C(=O)c2c(Nc3ccc(O)cc3)ccc(Nc3ccc(O)cc3)c21
17,302 to 304 °C,CC1=C2C(=O)N(O)C(=O)c3cccc(c32)C(=NO)C1O (configuration not stated)
18,204 to 209 °C,CS(=O)(=O)c1ccc(-c2ccc3cnc(Nc4ccc(N5CCCCC5)cc4)nn23)cc1
19,142 to 143 °C,CC(C1CC1)C1NNC(=S)N(N)C1=O (configuration not stated)
20,122 to 123 °C,Cc1ccc(CC#N)c(OCc2ccc(OCc3nc(-c4ccccc4)oc3C)cc2)n1
21,137 to 138 °C,NS(=O)(=O)c1ccc(-c2oc(C(F)(F)F)nc2-c2ccccc2)cc1
22,152 to 155 °C,Cc1c(NC(=O)c2ccc(-c3cccc(NC(=O)C(C)C)c3)cc2)ccc2cc(CN3CCCC3)cnc12
23,50 to 51 °C,Cc1ccc(CCCC(=O)O)cc1C
24,94 to 100 °C,CC(CCc1ccccc1)NCC(O)c1cc(C(N)=O)c2[nH]ccc2c1 (configuration not stated)
25,181 to 182 °C,CN1N=CC(=CNCc2ccc(F)cc2F)C1=O

row,melting point,Compound
1,175 to 177 °C,COc1ccc2c(c1)C(c1ccccc1)NN=C2Cc1c(Cl)cncc1Cl (configuration not stated)
2,178 to 179 °C,Cc1nc(-n2cnn(Cc3ccc(F)cc3)c2=O)sc1C(=O)NCc1cccnc1
3,180 to 184 °C,CC(=O)Nc1cccc2c1CN(c1ccc3ccn(C)c3c1)C2=O
4,152 to 154 °C,Nc1ccc(Oc2cccc(Oc3ccc(N)cc3)n2)cc1
5,155 to 157 °C,CCC1(CO)Cc2cc(OCC(=O)O)c(Cl)c(Cl)c2C1=O (configuration not stated)
6,74 to 75 °C,C=CC(CC(=O)Nc1ccc(F)cc1)C(C)C (configuration not stated)
7,298 °C,CC(C)c1ccc2ncc(C(=O)O)c(O)c2c1
8,124 to 125 °C,CCOC(=O)c1cccc(-c2ccc(Cl)c3cc(Cc4ccc(F)c(F)c4)sc23)c1
9,166 °C,CC(Oc1cccc2c(Oc3ccc(C(F)(F)F)cc3F)cccc12)C(=O)O (configuration not stated)
10,160 °C,Cc1cc(Br)c(Cl)c(C(=O)O)c1
11,216 to 217 °C,NC(=O)NCCSc1ccc2nccn2n1
12,249 to 250 °C,NS(=O)(=O)c1cccc(NC(=O)c2cnn3c(C4CC4)cc(-c4ccc(C(F)(F)F)cc4)nc23)c1
13,113 to 115 °C,COC(=O)C1=C(c2ccccc2)C(c2ccccc2)OC1=O (configuration not stated)
14,> 250 °C,Fc1ccc2[nH]c3c(ccc4cc[nH]c43)c2c1
15,91 °C,CC1(C)OCC(COc2ccc(Br)cc2C23CC4CC(CC(C4)C2)C3)O1 (configuration not stated)
16,59 °C,CCCOC(=O)C=CC1C(C(=O)O)C1(C)C (configuration not stated)
17,86.4 °C,COC(CNC(=O)CCN1C(=O)N(C)C(=O)C1(C)C)OC
18,101 to 103 °C,COc1cc(Cl)nc(Nc2ccccc2)n1
19,107 to 108 °C,CCOC(=O)CN1CCN(C2=Nc3ccccc3Cc3ccccc32)CC1
20,228 °C,CNC1(c2ccccc2Cl)C(=O)N(S(=O)(=O)c2ccc(NC(=O)c3cccnc3)cc2)c2ccc(Cl)cc21 (configuration not stated)
21,32 to 34 °C,CCCCCCCCCCCCCCOC(=O)OC1CC(C)(C)N(C)C(C)(C)C1
22,119 to 120 °C,CC1(C)CCC(C)(C)c2cc(C=O)c(F)cc21
23,224 °C,Fc1ccc(N2CCC(N3CCN(c4cccc5cccnc45)CC3)CC2)c2ncccc12
24,165 to 168 °C,Cc1ccc2c(c1Cl)C(=O)N(C1(C#N)CCCCC1)C2=O
25,138 to 140 °C,Oc1c(Cl)nc(-c2ccccc2)nc1Cl

row,melting point,Compound
1,112 °C,Cc1ccc(S(=O)c2nc(Cl)c([N+](=O)[O-])s2)cc1 (configuration not stated)
2,52 to 54 °C,CCC(NC(Cc1cccnc1C)=NC#N)c1ccccc1 (configuration not stated)
3,110 °C,C=CCOc1ccc2c(C)cc(=O)oc2c1
4,128 to 130 °C,CC(C)c1ncc(C(=O)O)nc1C(C)C
5,165 to 167 °C,CC(C)(C)OC(=O)N1CCN(c2ccc3nc(-c4cccs4)cn3n2)CC1
6,62 to 64 °C,CC(C)(O)c1ccc(CN)cc1
7,203 to 205 °C,NC(=NO)c1nn(-c2c(Cl)cc(C(F)(F)F)cc2Cl)c(N)c1S(=O)C(F)(F)F (configuration not stated)
8,155 to 159 °C,O=S(=O)(c1cc(Br)c(-c2ccc(Cl)cc2)[nH]1)C(F)(F)F
9,117 to 122 °C,C/C(=C\COc1ccc(Cl)cc1Cl)C(=O)O
10,108 to 110 °C,OCc1cc(N2CCCC2)c(Br)cn1
11,297 to 299 °C,COC(=O)c1ccc(C(=O)NCCNC(=O)c2ccc(C(=O)OC)cc2)cc1
12,234 to 236 °C,CNC(=O)c1ccc(-c2ccc(NC(=O)NCc3cccnc3)cc2)nc1Nc1ccccc1
13,240 to 245 °C,Cn1c(=O)c(-c2ccc(Cl)cc2Cl)cc2c3cc(-c4c[nH]nc4N)ccc3n(C)c21
14,46 to 47 °C,CCCCCC1CCC(c2ccc(CC(=O)OC)cc2)CC1 (configuration not stated)
15,172 to 173 °C,O=C(N[C@H](Cc1ccccc1)[C@H](O)C(=O)O)c1ccccc1
16,106 to 109 °C,O=C1OC[C@H]2[C@@H]1N(Cc1ccccc1)C(=O)N2Cc1ccccc1 (relative stereo)
17,131 to 133 °C,CC12C=CC(=O)C=C1CCC1C2C(=O)CC2(C)C(SCc3ccc(Cl)c(Cl)c3)CCC12 (configuration not stated)
18,90.4 to 93.5 °C,OCC1CC2CC2N1c1cncc(Br)c1 (configuration not stated)
19,160 to 162 °C,COc1nc(NC(=O)Nc2ccccc2OC)nc(N(CCC(=O)O)Cc2cccc(C)c2)n1
20,136 to 138 °C,c1csc(-c2cnc(COc3ccc(CCCCn4ccnc4)cc3)o2)c1
21,208 to 209 °C,Cc1ccc2c(c1)N=C(Cl)c1cscc1O2
22,133 to 135 °C,N#Cc1ccc(C(F)(F)C(F)(F)C(F)(F)c2ccc(C#N)c(C#N)c2)cc1C#N
23,162 to 166 °C,Cc1nn2c(c1Cl)N=NC2CCNC(=O)c1ccccc1C(=O)O (configuration not stated)

row,Compound,melting point
1,CN1Cc2c([N+](=O)[O-])ncn2-c2ccccc2C1=O,227 to 229 °C
2,CN(C)CCc1c[nH]c2ccc(Br)cc12,82 to 85 °C
3,NN1CC1c1ccccc1 (configuration not stated),60 °C
4,NNC1=Nc2ccc(C(F)(F)F)cc2C(c2ccccc2)=NC1,127 °C
